The results in this text go back to ChEMBL document CHEMBL1128788, “The development of a novel series of non-peptide tachykinin NK3 receptor selective antagonists” (Bioorg Med Chem Lett, 1995).

Molecules are shown by their SMILES.

For assay [1], the system named is CHO. In words: Inhibition of senktide-evoked increases in intracellular calcium levels in CHO cells measured using the fluorescent indicator Fura 2. Format: functional, Cricetulus griseus. (In general: A change in cytosolic calcium serves as a functional read-out for many receptors and channels.)
Assay [2] concerns the target Substance-P receptor (Homo sapiens, UniProt P25103). The experiment in a line: Compound was tested for binding affinity against human NK1 receptor.
For assay [3], the target named is T1, Neuromedin-K receptor (Homo sapiens, UniProt P29371).
T1 sequence (P29371 whole entry): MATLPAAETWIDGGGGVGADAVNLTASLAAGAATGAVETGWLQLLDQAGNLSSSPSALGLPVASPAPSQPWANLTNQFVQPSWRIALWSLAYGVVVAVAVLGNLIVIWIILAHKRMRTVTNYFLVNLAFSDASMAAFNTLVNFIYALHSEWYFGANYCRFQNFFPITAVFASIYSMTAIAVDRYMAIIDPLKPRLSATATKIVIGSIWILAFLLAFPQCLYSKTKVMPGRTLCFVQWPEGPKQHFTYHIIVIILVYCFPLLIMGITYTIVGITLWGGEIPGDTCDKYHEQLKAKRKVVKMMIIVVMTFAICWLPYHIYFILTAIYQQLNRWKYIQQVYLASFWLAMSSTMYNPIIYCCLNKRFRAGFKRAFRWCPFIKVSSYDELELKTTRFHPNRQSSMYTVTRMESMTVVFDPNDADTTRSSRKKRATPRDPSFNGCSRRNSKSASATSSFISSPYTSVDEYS
The experiment in a line: Compound was tested for binding affinity against human Tachykinin receptor 3 in CHO cells. The assay is classed as cell-based.

Chain of Substance-P receptor (P25103 whole entry): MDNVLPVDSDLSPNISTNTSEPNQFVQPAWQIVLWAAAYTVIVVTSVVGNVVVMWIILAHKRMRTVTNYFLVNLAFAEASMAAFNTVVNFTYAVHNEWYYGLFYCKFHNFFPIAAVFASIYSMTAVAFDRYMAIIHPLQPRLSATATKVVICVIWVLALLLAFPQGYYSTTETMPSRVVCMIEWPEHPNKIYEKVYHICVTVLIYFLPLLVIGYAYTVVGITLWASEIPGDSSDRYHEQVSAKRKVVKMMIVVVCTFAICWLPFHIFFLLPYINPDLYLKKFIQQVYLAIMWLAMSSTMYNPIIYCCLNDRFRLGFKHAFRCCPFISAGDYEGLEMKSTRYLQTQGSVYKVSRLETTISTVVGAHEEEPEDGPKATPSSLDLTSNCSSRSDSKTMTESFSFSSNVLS

For `CC(C)[C@H](OC(=O)N[C@](C)(Cc1ccccc1F)C(=O)NCCCCCCCNC(N)=O)c1ccccc1`, the Ke in assay [1] stood at 2.2 nM.

The term IC50 denotes the midpoint of a concentration-inhibition curve. A lower IC50 goes with greater potency. Turning to `CC(NC(=O)[C@@](C)(Cc1cc2ccccc2[nH]1)NC(=O)OC(c1ccccc1)C(C)C)c1ccccc1` (stereo partly drawn), the IC50 came out at 1400 nM in assay [2] and 1200 nM in assay [3].
